Data reported in patent US20240108637A1, “EPITE[…] AND/OR A STEROID SULFATASE INHIBITOR FOR USE IN TREATING OR IMPROVING AGE RELATED COGNITIVE IMPAIRMENT” (U[…] DE OLAVIDE, priority 2020, published 2024).
“Also recorded” adds a separate entry of the source. Counter-ions that a name gives are not always drawn.

What was measured:
[1] = test system: NL5901 strain expressing α-synuclein in muscle cells; test: Parkinson's disease model: mobility of NL5901 strain; format: in vivo, C. elegans; settings: 1 μg/ml
From the text: We have studied the anatomical location of sul-2 expression from an extrachromosomal array and in single-copy insertion transgenic strains. […] There is no detectable expression in the germline in any transgenic strains (FIG. 2n and FIG. 10, 11a-b). ASE neurons are responsible for the attractive response of Na+ and Cl−, among others. Defects in odour sensing affect longevity. Therefore, we tested the ability of sul-2 mutants to respond to Cl− or Na+ and found no differences compared to wild type animals (FIG. 11c-d). Furthermore, sul-2 mutation increases the longevity of daf-10(m79), a long-lived mutant defective in sensory cilia formation25 (FIG. 11e). […] Reduction of sul-2 improves aging associated diseases in C. elegans Aging is considered the main risk factor for the onset of neurodegenerative disorders like Parkinson, Huntington, or Alzheimer's diseases. These disorders are caused by the progressive decline of proteostasis, which results in protein aggregation that compromises cellular functions and finally causes cell death. Germline-deficient C. elegans delay the symptoms derived from the proteotoxicity of ectopically expressed human β-amyloid (βA). We tested if sul-2 mutations or STX64 treatment improves the symptoms of C. elegans models for neurodegenerative diseases.

daf-2(e1370) = test: Developmental arrest (dauer / L1) at 25° C.; format: in vivo, C. elegans; settings: daf-2(e1370) background
Description: Worms were growth at 16° C. until L4, then shifted to 25° C. considering this Day 0 of adulthood. The pumping was counted under the Leica stereoscope at 100× magnification for 30 seconds. Data display from two independent biological assays (n=30 per day). Two-tailed Mann-Whitney t-test, ***p=0.0006. e Thrashing in sul-2(gk187) is similar to wild type but is slightly lower in sul-2 (pv17) at 25° C. on day 1 of adulthood. On day 6 at 25° of adulthood, the trashing on sul-2(gk187) is lower than wild type and sul-(pv17), with no differences among these last strains. The population of sul-2(gk17) at day 6 seems to distribute into two different populations, one with almost no thrashing and other with values similar to wild type a sul-2(pv17). […] In this condition, all animals from daf-2(e1370); sul-2(pv17) double mutants arrest at L1 stage. Similarly, more than 50% of animals arrest in L1 stage in daf-2(m577); sul-2(pv17) background, while none of the single mutants show this phenotype. i Example of sul-2(pv17) larvae, dauer larval arrest of daf-2(e1370) or L1 arrest of daf-2(e1370); sul-2 (pv17) and daf-2(e1370); sul-2(gk187) at 25° C. Animals were grown up to L4 at 16° C., then shifted at 25° C., progeny were scored or imaged after 72 hours. Photographs were taken in a Leica scope.

aged mice [2] = test: Object recognition test in aged mice; format: in vivo; settings: aged mice, vs vehicle-treated, FIG. 21
Description: (§1) The first, object recognition, after training with identical objects, tests the ability to identify different objects exposed together with a familiar one. When this happens, the object discrimination index is positive and higher than 0.1. […] For this purpose, during training, the entry latency to the preferred site is established and the aversive stimulus is administered.

C. elegans = test: Lifespan assays in C. elegans; format: in vivo, Caenorhabditis elegans; settings: for life span / longevity: wild type background, FIG. 4f-g, FIG. 13c-d
Description: F2 L4 animals were shifted to 25° C. (t=0). ES treatment started at L4 stage, control and treated plates were prepared fresh and animals transferred each three days until death. Animals lost or dead by non-physiological causes were censured. Survival curves were generated using the product-limit method of Kaplan and Meier. The log-rank (Mantel-Cox) test was used to evaluate differences in survival and […] lower than 0.05 were considered significant.

16-month-old mice [3] = test: Y maze test; format: in vivo; settings: aged animals, Y maze 6 minutes, FIG. 20
Description: (§2) The “Open Field” is a test where the mouse must explore an unknown space for 15 minutes. In this test, both mobility and habituation (cognitive parameter that measures the individual's ability to recognize the environment) can be studied. On the other hand, the “Y maze” test is a test where the mouse explores the maze for 6 minutes. This test evaluates the distance traveled as a measure of mobility and the ability to visit triplets of arms without repeating any of them as a sign of immediate memory.

[4] = test system: GMC101 strain expressing human β-amyloid in muscle; test: Alzheimer's disease model: thermodependent paralysis of GMC101 strain; format: in vivo, C. elegans; settings: 1 μg/ml
From the text: In this model, GFP-labelled dopaminergic neurons die due to α-synuclein toxicity. […] We also tested two different strains of Alzheimer's disease (AD) in worms, where immobility is caused by expression of βA protein in muscle cells.

aged mice [5] = test: Passive avoidance test in aged mice (STM and LTM); format: in vivo; settings: aged mice, vs vehicle-treated, FIG. 21
Description: as §1
During short- and long-term memory tests (STM and LTM) if the mouse associated the preferred place to the aversive stimulus, the input latency increases with respect to training.

16-month-old mice [6] = test: Open Field test; format: in vivo; settings: FIG. 20; for habituation ability: aged animals, Open Field 15 minutes
Description: as §2

[7] = test system: mammalian model with intrahippocampal βA oligomers; settings: local administration; previously reported; cited from earlier work

C[C@]12CC[C@H]3[C@@H](CCC4=CC(=O)CC[C@@]43C)[C@@H]1CC[C@@H]2O [T, testosterone]
mobility with age [1]: No effect is observed
mobility with age ([1]; listed as testosterone): showed no effect

C[C@]12CC[C@H]3[C@@H](CCC4=CC(=O)CC[C@@]43C)[C@@H]1CC[C@H]2OS(=O)(=O)O [ES, N,N-diethylethanamine;[(8R,9S,10R,13S,14S,17R)-10,13-dimethyl-3-oxo-1,2,6,7,8,9,11,12,14,15,16,17-dodecahydrocyclopenta[a]phenanthren-17-yl]hydrogen sulfate]
L1 arrest (daf-2(e1370)): increase
mobility with age [1]: improved the mobility; also recorded: better result
learning and memory, object recognition test (aged mice [2]): showed significantly both learning (STM) and ability to store information (memory); also recorded: significant improvement in both learning (STM) and ability to store information (memory)
learning and memory, object recognition test (aged mice [2]; listed as E-S): showed significantly both learning (STM) and ability to store information (memory)
lifespan (C. elegans; FIG. 15, treatment from L4 stage, 25° C., fer-15(b26) background, p<0.05 Log-Rank (Mantel-Cox)): significantly increased life span
lifespan (C. elegans; sul-2(gk187) background, 1 μg/ml, FIG. 4f): does not further increase
lifespan (C. elegans; sul-2(pv17) background, 1 μg/ml, FIG. 13c,d): does not increase further
longevity (C. elegans; sul-2 mutants backgrounds): did not further increase longevity
life span / longevity (C. elegans; 1 μg/ml): increases life span; also recorded: increased in longevity; also recorded: increases lifespan
immediate memory (16-month-old mice [3]): tend to improve
immediate memory (16-month-old mice [3]; listed as E-S): are improved
paralysis phenotype ([4]; FIG. 3h, FIG. 4b): is ameliorate
paralysis phenotype ([4]; normal NGM plates, FIG. 13a): is reduced
learning (STM) and memory (LTM), passive avoidance test (aged mice [5]): showed significantly both learning (STM) and ability to store information (memory); also recorded: significant improvement in both learning (STM) and ability to store information (memory)
learning (STM) and memory (LTM), passive avoidance test (aged mice [5]; listed as E-S): showed significantly both learning (STM) and ability to store information (memory)
motor ability (mobility) (16-month-old mice [6]; 16-month-old mice, Open Field mobility and Y maze distance traveled): tend to improve
habituation ability (16-month-old mice [6]): tend to improve
habituation ability (16-month-old mice [6]; listed as E-S): are improved

dehidroepiandrosterone sulfate [DHEAS]
L1 arrest (daf-2(e1370)): increase
mobility with age [1]: improved the mobility
life span / longevity (C. elegans; 1 μg/ml): does not affect longevity; also recorded: do not affect

pregnenolone sulfate [PregS]
mobility with age [1]: No effect is observed
mobility with age ([1]; listed as pregnenolone sulfate): showed no effect

C[C@]12CC[C@H](O)CC1=CC[C@@H]1[C@@H]2CC[C@]2(C)C(=O)CC[C@@H]12 [DHEA]
mobility with age [1]: No effect is observed; also recorded: showed no effect

CCCCCCCCCCCCCC(=O)NCCc1ccc(OS(N)(=O)=O)cc1 [DU-14]
memory loss [7]: could alleviate memory loss

C[C@]12CC[C@H]3[C@@H](CCC4=CC(=O)CC[C@@]43C)[C@@H]1CC[C@@H]2OS(=O)(=O)O [TS, [(8R,9S,10R,13S,14S,17S)-10,13-dimethyl-3-oxo-1,2,6,7,8,9,11,12,14,15,16,17-dodecahydrocyclopenta[a]phenanthren-17-yl] hydrogen sulfate]
L1 arrest (daf-2(e1370)): increase
mobility with age [1]: improved the mobility
life span / longevity (C. elegans; 1 μg/ml): does not affect longevity; also recorded: do not affect
paralysis phenotype ([4]; FIG. 3h, FIG. 4b): is ameliorate
paralysis phenotype ([4]; normal NGM plates, FIG. 13a): is reduced
